Laboratory results as given in ChEMBL document CHEMBL1148480, “Structure-activity studies of orexin a and orexin B at the human orexin 1 and orexin 2 receptors led to orexin 2 receptor selective and orexin 1 receptor preferring ligands” (J Med Chem, 2004).
Non-standard residues stand in square brackets, D forms with d. Residues, ends and D or L forms follow the SMILES beside them. pGlu = O=C1CC[C@@H](C(=O)O)N1

Tests used:
Orexin receptor type 2 = target: T1, Orexin receptor type 2 (Homo sapiens, UniProt O43614); test: Effective agonist concentration to the human Orexin receptor type 2 was determined using the Xlfit program; format: functional
T1 sequence (O43614 whole entry): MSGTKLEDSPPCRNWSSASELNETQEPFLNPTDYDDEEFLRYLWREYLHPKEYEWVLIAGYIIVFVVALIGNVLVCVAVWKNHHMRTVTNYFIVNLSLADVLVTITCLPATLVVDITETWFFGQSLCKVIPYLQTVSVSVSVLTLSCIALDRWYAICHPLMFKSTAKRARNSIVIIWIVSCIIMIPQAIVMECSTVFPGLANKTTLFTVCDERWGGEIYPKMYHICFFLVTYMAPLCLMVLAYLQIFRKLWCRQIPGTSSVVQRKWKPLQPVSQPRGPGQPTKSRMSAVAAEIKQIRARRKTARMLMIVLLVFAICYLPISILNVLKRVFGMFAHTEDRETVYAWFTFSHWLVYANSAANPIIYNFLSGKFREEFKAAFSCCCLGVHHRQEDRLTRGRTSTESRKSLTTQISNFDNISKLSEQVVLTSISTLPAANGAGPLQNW

[1] = target: T2, Orexin/Hypocretin receptor type 1 (Homo sapiens, UniProt O43613); test: Effective agonist concentration to human orexin receptor type 1 determined using the Xlfit program; format: functional
T2 sequence (O43613 whole entry): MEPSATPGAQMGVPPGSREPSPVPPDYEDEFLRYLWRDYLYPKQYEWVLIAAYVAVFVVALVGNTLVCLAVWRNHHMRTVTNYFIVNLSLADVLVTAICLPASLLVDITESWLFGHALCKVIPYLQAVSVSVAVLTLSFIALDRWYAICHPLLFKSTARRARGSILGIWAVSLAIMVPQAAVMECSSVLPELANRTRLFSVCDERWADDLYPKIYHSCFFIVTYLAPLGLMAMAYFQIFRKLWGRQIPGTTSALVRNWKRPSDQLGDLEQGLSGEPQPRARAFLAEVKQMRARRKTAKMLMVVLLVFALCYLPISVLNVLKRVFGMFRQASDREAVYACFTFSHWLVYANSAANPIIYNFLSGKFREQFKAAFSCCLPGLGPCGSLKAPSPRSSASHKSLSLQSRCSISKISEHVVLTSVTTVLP

SMILES	EC50 (Orexin receptor type 2) [µM]	EC50 [1] [µM]
CC[C@H](C)[C@H](NC(=O)CNC(=O)[C@H](C)NC(=O)[C@H](C)NC(=O)[C@H](Cc1cnc[nH]1)NC(=O)[C@H](CC(N)=O)NC(=O)CNC(=O)[C@H](C)NC(=O)CNC(=O)[C@H](Cc1cnc[nH]1)NC(=O)[C@H](CC(C)C)NC(=O)[C@H](CC(C)C)NC(=O)[C@H](CCC(=O)O)NC(=O)[C@H](Cc1ccc(O)cc1)NC(=O)[C@H](CC(C)C)NC(=O)[C@H](CCCNC(=N)N)NC(=O)[C@H](CS)NC(=O)[C@H](CO)NC(=O)[C@H](CS)NC(=O)[C@@H](N)[C@@H](C)O)C(=O)N[C@@H](CC(C)C)C(=O)N[C@H](C(=O)N[C@@H](CC(C)C)C(=O)O)[C@@H](C)O (H-TCSCRLYELLHGAGNHAAGILTL-OH)	0.38	1.21
CC[C@H](C)[C@H](NC(=O)CNC(=O)[C@H](C)NC(=O)[C@H](C)NC(=O)[C@H](Cc1cnc[nH]1)NC(=O)[C@H](CC(N)=O)NC(=O)CNC(=O)[C@H](CO)NC(=O)[C@H](C)NC(=O)[C@H](C)NC(=O)[C@H](CC(C)C)NC(=O)[C@H](CC(C)C)NC(=O)[C@H](CCCNC(=N)N)NC(=O)[C@H](CCC(N)=O)NC(=O)[C@H](CC(C)C)NC(=O)[C@H](CCCNC(=N)N)NC(=O)CNC(=O)[C@H](CCC(N)=O)NC(=O)[C@H](CC(C)C)NC(=O)CN)C(=O)N[C@@H](CC(C)C)C(=O)N[C@H](C(=O)N[C@@H](CCSC)C(=O)O)[C@@H](C)O (H-GLQGRLQRLLAASGNHAAGILTM-OH)	0.19	1.64
CC[C@H](C)[C@H](NC(=O)CNC(=O)[C@H](C)NC(=O)[C@H](C)NC(=O)[C@H](Cc1cnc[nH]1)NC(=O)[C@H](CC(N)=O)NC(=O)CNC(=O)[C@H](C)NC(=O)CNC(=O)[C@H](Cc1cnc[nH]1)NC(=O)[C@H](CC(C)C)NC(=O)[C@H](CC(C)C)NC(=O)[C@H](CCC(=O)O)NC(=O)[C@H](Cc1ccc(O)cc1)NC(=O)[C@H](CC(C)C)NC(=O)[C@H](CCCNC(=N)N)NC(=O)[C@H](CS)NC(=O)[C@H](CO)NC(=O)[C@H](CS)NC(=O)[C@@H](NC(=O)[C@H](CCCCN)NC(=O)[C@H](CCC(N)=O)NC(=O)[C@@H](N)CCCNC(=N)N)[C@@H](C)O)C(=O)N[C@@H](CC(C)C)C(=O)N[C@H](C(=O)N[C@@H](CC(C)C)C(=O)O)[C@@H](C)O (H-RQKTCSCRLYELLHGAGNHAAGILTL-OH)	0.29	0.68
CC[C@H](C)[C@H](NC(=O)CNC(=O)[C@H](C)NC(=O)[C@H](C)NC(=O)[C@H](Cc1cnc[nH]1)NC(=O)[C@H](CC(N)=O)NC(=O)CNC(=O)[C@H](CO)NC(=O)[C@H](C)NC(=O)[C@H](CCC(N)=O)NC(=O)[C@H](CC(C)C)NC(=O)[C@H](CC(C)C)NC(=O)[C@H](CCCNC(=N)N)NC(=O)[C@H](CCC(N)=O)NC(=O)[C@H](CC(C)C)NC(=O)[C@H](CCCNC(=N)N)NC(=O)CNC(=O)[C@H](CCC(N)=O)NC(=O)[C@H](CC(C)C)NC(=O)CN)C(=O)N[C@@H](C)C(=O)N[C@H](C(=O)N[C@@H](CCSC)C(=O)O)[C@@H](C)O (H-GLQGRLQRLLQASGNHAAGIATM-OH)	15.6	> 1000
CC[C@H](C)[C@H](NC(=O)CNC(=O)[C@H](C)NC(=O)[C@H](C)NC(=O)[C@H](Cc1cnc[nH]1)NC(=O)[C@H](C)NC(=O)CNC(=O)[C@H](CO)NC(=O)[C@H](C)NC(=O)[C@H](CCC(N)=O)NC(=O)[C@H](CC(C)C)NC(=O)[C@H](CC(C)C)NC(=O)[C@H](CCCNC(=N)N)NC(=O)[C@H](CCC(N)=O)NC(=O)[C@H](CC(C)C)NC(=O)[C@H](CCCNC(=N)N)NC(=O)CNC(=O)[C@H](CCC(N)=O)NC(=O)[C@H](CC(C)C)NC(=O)CN)C(=O)N[C@@H](CC(C)C)C(=O)N[C@H](C(=O)N[C@@H](CCSC)C(=O)O)[C@@H](C)O (stereo in doubt; form 2)	0.32	2.18
CC[C@H](C)[C@H](NC(=O)CNC(=O)[C@H](C)NC(=O)[C@H](C)NC(=O)[C@H](Cc1cnc[nH]1)NC(=O)[C@H](CC(N)=O)NC(=O)CNC(=O)[C@H](C)NC(=O)CNC(=O)[C@H](Cc1cnc[nH]1)NC(=O)[C@H](CC(C)C)NC(=O)[C@H](CC(C)C)NC(=O)[C@H](CCC(=O)O)NC(=O)[C@H](Cc1ccc(O)cc1)NC(=O)[C@H](CC(C)C)NC(=O)[C@H](CCCNC(=N)N)NC(=O)CNC(=O)[C@@H]1CCCN1C(=O)[C@H](CC(=O)O)NC(=O)[C@@H]1CCCN1C(=O)[C@H](CC(C)C)NC(=O)[C@@H]1CCCN1C(=O)[C@@H]1CCC(=O)N1)C(=O)N[C@@H](CC(C)C)C(=O)N[C@H](C(=O)N[C@@H](CC(C)C)C(=O)O)[C@@H](C)O ([pGlu]PLPDPGRLYELLHGAGNHAAGILTL-OH)	0.61	4.52
CC[C@H](C)[C@H](NC(=O)CNC(=O)[C@H](C)NC(=O)[C@@H]1CCCN1C(=O)[C@H](Cc1cnc[nH]1)NC(=O)[C@H](CC(N)=O)NC(=O)CNC(=O)[C@H](CO)NC(=O)[C@H](C)NC(=O)[C@H](CCC(N)=O)NC(=O)[C@H](CC(C)C)NC(=O)[C@H](CC(C)C)NC(=O)[C@H](CCCNC(=N)N)NC(=O)[C@H](CCC(N)=O)NC(=O)[C@H](CC(C)C)NC(=O)[C@H](CCCNC(=N)N)NC(=O)CNC(=O)[C@H](CCC(N)=O)NC(=O)[C@H](CC(C)C)NC(=O)CN)C(=O)N[C@@H](CC(C)C)C(=O)N[C@H](C(=O)N[C@@H](CCSC)C(=O)O)[C@@H](C)O (H-GLQGRLQRLLQASGNHPAGILTM-OH)	4.4	> 1000

Now from value to molecule:

EC50 (Orexin receptor type 2) [µM]	EC50 [1] [µM]	SMILES
> 1000	> 1000	CSCC[C@H](NC(=O)[C@@H](NC(=O)[C@H](CC(C)C)NC(=O)[C@H](C)NC(=O)CNC(=O)[C@H](C)NC(=O)[C@H](C)NC(=O)[C@H](Cc1c[nH]cn1)NC(=O)[C@H](CC(N)=O)NC(=O)CNC(=O)[C@H](CO)NC(=O)[C@H](C)NC(=O)[C@H](CCC(N)=O)NC(=O)[C@H](CC(C)C)NC(=O)[C@H](CC(C)C)NC(=O)[C@H](CCCN=C(N)N)NC(=O)[C@H](CCC(N)=O)NC(=O)[C@H](CC(C)C)NC(=O)[C@H](CCCN=C(N)N)NC(=O)CNC(=O)[C@H](CCC(N)=O)NC(=O)[C@H](CC(C)C)NC(=O)CN)[C@@H](C)O)C(=O)O (H-GLQGRLQRLLQASGNHAAGALTM-OH)
2.67	> 1000	CC[C@H](C)[C@H](NC(=O)CNC(=O)[C@H](C)NC(=O)[C@H](C)NC(=O)[C@H](Cc1cnc[nH]1)NC(=O)[C@H](CC(N)=O)NC(=O)CNC(=O)[C@H](CO)NC(=O)[C@H](C)NC(=O)[C@H](CCC(N)=O)NC(=O)[C@H](CC(C)C)NC(=O)[C@H](CC(C)C)NC(=O)[C@H](CCCNC(=N)N)NC(=O)[C@H](CCC(N)=O)NC(=O)[C@H](CC(C)C)NC(=O)[C@H](CCCNC(=N)N)NC(=O)CNC(=O)[C@H](CCC(N)=O)NC(=O)[C@H](CC(C)C)NC(=O)CN)C(=O)N[C@@H](CC(C)C)C(=O)N1CCC[C@H]1C(=O)N[C@@H](CCSC)C(=O)O (H-GLQGRLQRLLQASGNHAAGILPM-OH)
> 1000	> 1000	CC(C)C[C@H](NC(=O)[C@@H]1CCCN1C(=O)[C@@H]1CCC(=O)N1)C(=O)N1CCC[C@H]1C(=O)N[C@@H](CC(=O)O)C(=O)N[C@@H](CS)C(=O)N[C@@H](CS)C(=O)N[C@@H](CCCN=C(N)N)C(=O)N[C@@H](CCC(N)=O)C(=O)N[C@@H](CCCCN)C(=O)N[C@H](C(=O)O)[C@@H](C)O
0.84	1.89	CC[C@H](C)[C@H](NC(=O)CNC(=O)[C@H](C)NC(=O)[C@H](C)NC(=O)[C@@H]1CCCN1C(=O)[C@H](CC(N)=O)NC(=O)CNC(=O)[C@H](CO)NC(=O)[C@H](C)NC(=O)[C@H](CCC(N)=O)NC(=O)[C@H](CC(C)C)NC(=O)[C@H](CC(C)C)NC(=O)[C@H](CCCNC(=N)N)NC(=O)[C@H](CCC(N)=O)NC(=O)[C@H](CC(C)C)NC(=O)[C@H](CCCNC(=N)N)NC(=O)CNC(=O)[C@H](CCC(N)=O)NC(=O)[C@H](CC(C)C)NC(=O)CN)C(=O)N[C@@H](CC(C)C)C(=O)N[C@H](C(=O)N[C@@H](CCSC)C(=O)O)[C@@H](C)O (H-GLQGRLQRLLQASGNPAAGILTM-OH)
> 1000	> 1000	CC[C@H](C)[C@H](NC(=O)CNC(=O)[C@H](C)NC(=O)[C@H](C)NC(=O)[C@H](Cc1c[nH]cn1)NC(=O)[C@H](CC(N)=O)NC(=O)CNC(=O)[C@@H](N)CO)C(=O)N[C@@H](CC(C)C)C(=O)N[C@H](C(=O)N[C@@H](CCSC)C(=O)O)[C@@H](C)O (H-SGNHAAGILTM-OH)
3.6	> 1000	CC[C@H](C)[C@H](NC(=O)CNC(=O)[C@@H]1CCCN1C(=O)[C@H](C)NC(=O)[C@H](Cc1cnc[nH]1)NC(=O)[C@H](CC(N)=O)NC(=O)CNC(=O)[C@H](CO)NC(=O)[C@H](C)NC(=O)[C@H](CCC(N)=O)NC(=O)[C@H](CC(C)C)NC(=O)[C@H](CC(C)C)NC(=O)[C@H](CCCNC(=N)N)NC(=O)[C@H](CCC(N)=O)NC(=O)[C@H](CC(C)C)NC(=O)[C@H](CCCNC(=N)N)NC(=O)CNC(=O)[C@H](CCC(N)=O)NC(=O)[C@H](CC(C)C)NC(=O)CN)C(=O)N[C@@H](CC(C)C)C(=O)N[C@H](C(=O)N[C@@H](CCSC)C(=O)O)[C@@H](C)O (H-GLQGRLQRLLQASGNHAPGILTM-OH)
